Here are results for 1 compound from patent US10646488B2 (Araxes Pharma LLC, priority 2016, dated 2020).

Each structure is given as a SMILES string.

For the assay, the target named is T1, KRAS G12C 1-169, his-tagged protein, GDP-loaded (Homo sapiens, UniProt P01116, G12C).
T1 construct: KRAS G12C 1-169, his-tagged protein, GDP-loaded
The experiment in a line: Covalent binding (% modification) to KRAS G12C by mass spectrometry. Further: test concentration or dose not given here. The conditions noted are these: covalent binding to KRAS G12C after a three minute incubation period.

In the case of `C=CC(=O)N1C[C@H](C)N(c2nc(OCCn3ccnc3)nc3c(F)c(-c4c(O)cccc4F)c(Cl)cc23)C[C@H]1C` [Compound 232, 1-((2R,5S)-4-(2-(2-(1H-imidazol-1-yl)ethoxy)-6-chloro-8-fluoro-7-(2-fluoro-6-hydroxyphenyl)quinazolin-4-yl)-2,5-dimethyl-piperazin-1-yl) prop-2-en-1-one], the Binding % entry is recorded as “++ (++ indicates binding activity from 50 to 90%)”.
